Results as given in US20230399312A1, “SUBSTITUTED PYRIMIDINES AND METHODS OF USE” (THERAVANCE BIOPHARMA R&D IP, LLC, priority 2020, published 2023).

Experiments:
[1] = molecular target: T1, recombinant human ALK5 (TGF-βR1) protein (Homo sapiens, UniProt P36897); assay: Biochemical ALK5 (TGF-βR1) assay to measure pKi (LANCE Ultra ULight kinase assay); conditions: apparent pKi, converted from pIC50 by Cheng-Prusoff
T1 construct: purchased Life Technologies PR9075A
T1 sequence (P36897 34-503): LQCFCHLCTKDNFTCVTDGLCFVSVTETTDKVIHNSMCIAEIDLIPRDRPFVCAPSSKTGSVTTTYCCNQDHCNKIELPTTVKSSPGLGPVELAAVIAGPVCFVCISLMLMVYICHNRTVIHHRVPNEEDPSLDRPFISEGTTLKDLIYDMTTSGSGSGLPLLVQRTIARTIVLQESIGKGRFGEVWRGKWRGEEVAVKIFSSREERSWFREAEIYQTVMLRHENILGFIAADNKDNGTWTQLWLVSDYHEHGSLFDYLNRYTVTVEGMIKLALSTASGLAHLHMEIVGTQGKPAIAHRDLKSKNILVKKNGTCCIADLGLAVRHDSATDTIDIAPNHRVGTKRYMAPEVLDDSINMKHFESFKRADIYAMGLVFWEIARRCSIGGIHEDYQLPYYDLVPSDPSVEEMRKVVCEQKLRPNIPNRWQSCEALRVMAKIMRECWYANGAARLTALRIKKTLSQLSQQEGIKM
How it was run: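 Cmpd + enzyme, 60 min RT; ATP from 125 μM (5×) stock, 60 min 37 °C; stop 12 mM EDTA/Eu anti-pThr1342 Topo2α Ab (pH 7.0 buffer); TR-FRET 665 nm. DMSO = max, SD-208 = min signal. 4-PL pIC50 → pKi (Cheng-Prusoff).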

[2] = system: TGF-β-stimulated SMAD3 phosphorylation in BEAS-2B cells; assay: Cellular ALK5 potency assay, inhibition of TGF-β stimulated pSMAD3 formation in BEAS-2B cells; format: cell-based; conditions: Homo sapiens, pSMAD3, TGF-β 10 ng/mL, read-out: BEAS2B pIC50 (converted)
How it was run: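 Potency is expressed as pIC50, based on dose-dependent reduction of TGF-β-induced pSMAD3 AlphaLISA signal relative to stimulated cells without compound. BEAS-2B cells received compound 1 h before a 30 min, 10 ng/mL TGF-β challenge.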

Q: What does the source list for `Cc1cccc(-c2nccc(Nc3ccnc(Nc4csc(C(=O)OC[C@H]5CCCCN5)c4)n3)n2)n1` [Compound 588, [(2R)-2-piperidyl]methyl 4-[[4-[[2-(6-methyl-2-pyridyl)pyrimidin-4-yl]amino]pyrimidin-2-yl]amino]thiophene-2-carboxylate]?
A: Ki [1]: 0.0398 to 0.316 nM; IC50 [2]: 25.1 to 158 nM

Q: Which Ki [1] does the source give for `Cc1cccc(-c2nccc(Nc3ccnc(Nc4ccc(C(=O)OCCN5C[C@@H](C)N[C@@H](C)C5)nc4)n3)n2)n1` [Compound 589, 2-[(3R,5S)-3,5-dimethylpiperazin-1-yl]ethyl 5-[[4-[[2-(6-methyl-2-pyridyl)pyrimidin-4-yl]amino]pyrimidin-2-yl]amino]pyridine-2-carboxylate] here?
A: Its Ki is 0.398 to 3.16 nM.

Q: What about the IC50 [2] of the same molecule?
A: The IC50 was 25.1 to 158 nM.

Q: What does the source list for `Cc1cccc(-c2nccc(Nc3ccnc(Nc4csc(C(=O)OC[C@H]5CC[C@H](N)CC5)c4)n3)n2)n1` [Compound 590, (4-aminocyclohexyl)methyl 4-[[4-[[2-(6-methyl-2-pyridyl)pyrimidin-4-yl]amino]pyrimidin-2-yl]amino]thiophene-2-carboxylate]?
A: Ki [1]: 0.0398 to 0.316 nM; IC50 [2]: 25.1 to 158 nM

Q: Which results are given for `Cc1cccc(-c2nccc(Nc3ccnc(Nc4csc(C(=O)OC5CCNCC5)c4)n3)n2)n1` [Compound 591, 4-piperidyl 4-[[4-[[2-(6-methyl-2-pyridyl)pyrimidin-4-yl]amino]pyrimidin-2-yl]amino]thiophene-2-carboxylate]?
A: Ki [1]: 0.0398 to 0.316 nM; IC50 [2]: 25.1 to 158 nM

Q: Which Ki [1] does the source give for `Cc1cccc(-c2nccc(Nc3ccnc(Nc4ncc(C(=O)OC[C@H]5CCCN5)s4)n3)n2)n1` [Compound 592, [(2R)-pyrrolidin-2-yl]methyl 2-[[4-[[2-(6-methyl-2-pyridyl)pyrimidin-4-yl]amino]pyrimidin-2-yl]amino]thiazole-5-carboxylate] here?
A: Its Ki is 3.98 to 31.6 nM.

Q: What about the IC50 [2] of the same molecule?
A: Its IC50 is 25.1 to 158 nM.

Q: With `Cc1cccc(-c2nccc(Nc3ccnc(Nc4nc(C(=O)OC[C@H]5CCCN5)cs4)n3)n2)n1` [Compound 593, [(2R)-pyrrolidin-2-yl]methyl 2-[[4-[[2-(6-methyl-2-pyridyl)pyrimidin-4-yl]amino]pyrimidin-2-yl]amino]thiazole-4-carboxylate] as the molecule, how does the Ki [1] read?
A: Its Ki is 0.398 to 3.16 nM.

Q: What about the IC50 [2] of the same molecule?
A: Its IC50 is 25.1 to 158 nM.

Q: Which Ki [1] does the source give for `Cc1cccc(-c2nccc(Nc3ccnc(Nc4ccc(C(=O)O[C@@H]5CCCNC5)nc4)n3)n2)n1` [Compound 594, [(3R)-3-piperidyl] 5-[[4-[[2-(6-methyl-2-pyridyl)pyrimidin-4-yl]amino]pyrimidin-2-yl]amino]pyridine-2-carboxylate] here?
A: The Ki was 0.0398 to 0.316 nM.

Q: What about the IC50 [2] of the same molecule?
A: Its IC50 is 200 to 1260 nM.

Q: `Cc1cccc(-c2nccc(Nc3ccnc(Nc4cncc(C(=O)OC[C@@H]5CCCNC5)c4)n3)n2)n1` [Compound 595] was tested. Which Ki [1] did it give?
A: Its Ki is 0.398 to 3.16 nM.

Q: And the IC50 [2]?
A: The IC50 was 25.1 to 158 nM.

Q: For `Cc1cccc(-c2nccc(Nc3ccnc(Nc4ccc(C(=O)OC5CCCNCC5)nc4)n3)n2)n1` (stereo not shown) [Compound 596, azepan-4-yl 5-[[4-[[2-(6-methyl-2-pyridyl)pyrimidin-4-yl]amino]pyrimidin-2-yl]amino]pyridine-2-carboxylate], which Ki [1] is on record?
A: The Ki was 0.0398 to 0.316 nM.

Q: What about the IC50 [2] of the same molecule?
A: Its IC50 is 200 to 1260 nM.

Q: How did the Ki [1] turn out when `Cc1cccc(-c2nccc(Nc3ccnc(Nc4ccc(C(=O)OC[C@@H]5CCCCN5)nc4)n3)n2)n1` [Compound 597, [(2S)-2-piperidyl]methyl 5-[[4-[[2-(6-methyl-2-pyridyl)pyrimidin-4-yl]amino]pyrimidin-2-yl]amino]pyridine-2-carboxylate] was run?
A: The Ki was 0.0398 to 0.316 nM.

Q: And the IC50 [2]?
A: Its IC50 is 25.1 to 158 nM.

Q: What does the source list for `Cc1cccc(-c2nccc(Nc3ccnc(Nc4csc(C(=O)OCCN5CCC[C@@H](N)C5)c4)n3)n2)n1` [Compound 598, 2-[(3R)-3-amino-1-piperidyl]ethyl 4-[[4-[[2-(6-methyl-2-pyridyl)pyrimidin-4-yl]amino]pyrimidin-2-yl]amino]thiophene-2-carboxylate]?
A: Ki [1]: 0.0398 to 0.316 nM; IC50 [2]: 25.1 to 158 nM

Q: What does the source list for `Cc1cccc(-c2nccc(Nc3ccnc(Nc4csc(C(=O)OCCN5CCN6CCCC6C5)c4)n3)n2)n1` (stereo not shown) [Compound 599, 2-(3,4,6,7,8,8a-hexahydro-1H-pyrrolo[1,2-a]pyrazin-2-yl)ethyl 4-[[4-[[2-(6-methyl-2-pyridyl)pyrimidin-4-yl]amino]pyrimidin-2-yl]amino]thiophene-2-carboxylate]?
A: Ki [1]: 0.0398 to 0.316 nM; IC50 [2]: 25.1 to 158 nM

Q: How did the Ki [1] turn out when `Cc1cccc(-c2nccc(Nc3ccnc(Nc4csc(C(=O)OC[C@H]5CCCNC5)c4)n3)n2)n1` [Compound 600, [(3S)-3-piperidyl]methyl 4-[[4-[[2-(6-methyl-2-pyridyl)pyrimidin-4-yl]amino]pyrimidin-2-yl]amino]thiophene-2-carboxylate] was run?
A: Its Ki is 0.0398 to 0.316 nM.

Q: And the IC50 [2]?
A: The IC50 was 25.1 to 158 nM.

Q: Which Ki [1] does the source give for `Cc1cccc(-c2nccc(Nc3ccnc(Nc4cc(C(=O)O[C@@H]5CCNC5)ccn4)n3)n2)n1` [Compound 601, [(3R)-pyrrolidin-3-yl] 2-[[4-[[2-(6-methyl-2-pyridyl)pyrimidin-4-yl]amino]pyrimidin-2-yl]amino]pyridine-4-carboxylate] here?
A: Its Ki is 3.98 to 31.6 nM.

Q: What about the IC50 [2] of the same molecule?
A: Its IC50 is 200 to 1260 nM.

Q: `Cc1cccc(-c2nccc(Nc3ccnc(Nc4csc(C(=O)OCCC5CNC5)c4)n3)n2)n1` [Compound 602, 2-(azetidin-3-yl)ethyl 4-[[4-[[2-(6-methyl-2-pyridyl)pyrimidin-4-yl]amino]pyrimidin-2-yl]amino]thiophene-2-carboxylate] was tested. Which Ki [1] did it give?
A: Its Ki is 0.0398 to 0.316 nM.

Q: What about the IC50 [2] of the same molecule?
A: The IC50 was 25.1 to 158 nM.

Q: What does the source list for `Cc1cccc(-c2nccc(Nc3ccnc(Nc4cncc(CN5CC(C(=O)O)C5)c4)n3)n2)n1` [Compound 603, 1-[[5-[[4-[[2-(6-methyl-2-pyridyl)pyrimidin-4-yl]amino]pyrimidin-2-yl]amino]-3-pyridyl]methyl]azetidine-3-carboxylic acid]?
A: Ki [1]: 0.0398 to 0.316 nM; IC50 [2]: 1580 to 10000 nM

Q: What does the source list for `Cc1cccc(-c2nccc(Nc3ccnc(Nc4ncc(N5C[C@@H](C)N[C@@H](C)C5)s4)n3)n2)n1` [Compound 604, N2-[5-[(3R,5S)-3,5-dimethylpiperazin-1-yl]thiazol-2-yl]-N4-[2-(6-methyl-2-pyridyl)pyrimidin-4-yl]pyrimidine-2,4-diamine]?
A: Ki [1]: 3.98 to 31.6 nM; IC50 [2]: 200 to 1260 nM

Q: With `Cc1cccc(-c2nccc(Nc3ccnc(Nc4ccc(C(=O)OC[C@H]5CNCCO5)nc4)n3)n2)n1` [Compound 605, [(2R)-morpholin-2-yl]methyl 5-[[4-[[2-(6-methyl-2-pyridyl)pyrimidin-4-yl]amino]pyrimidin-2-yl]amino]pyridine-2-carboxylate] as the molecule, how does the Ki [1] read?
A: Its Ki is 0.0398 to 0.316 nM.

Q: And the IC50 [2]?
A: The IC50 was 200 to 1260 nM.

Q: For `Cc1cccc(-c2nccc(Nc3ccnc(Nc4cncc(C(=O)OCC5CCNCC5)c4)n3)n2)n1` [Compound 606, 4-piperidylmethyl 5-[[4-[[2-(6-methyl-2-pyridyl)pyrimidin-4-yl]amino]pyrimidin-2-yl]amino]pyridine-3-carboxylate], which Ki [1] is on record?
A: Its Ki is 0.398 to 3.16 nM.

Q: What about the IC50 [2] of the same molecule?
A: Its IC50 is 25.1 to 158 nM.

Q: How did the Ki [1] turn out when `Cc1cccc(-c2nccc(Nc3ccnc(Nc4csc(C(=O)OCC5CCNCC5)c4)n3)n2)n1` [Compound 607, 4-piperidylmethyl 4-[[4-[[2-(6-methyl-2-pyridyl)pyrimidin-4-yl]amino]pyrimidin-2-yl]amino]thiophene-2-carboxylate] was run?
A: The Ki was 0.0398 to 0.316 nM.

Q: What about the IC50 [2] of the same molecule?
A: The IC50 was 25.1 to 158 nM.

Q: With `Cc1cccc(-c2nccc(Nc3ccnc(Nc4cc(C(=O)OCC5CNC5)ccn4)n3)n2)n1` [Compound 608, azetidin-3-ylmethyl 2-[[4-[[2-(6-methyl-2-pyridyl)pyrimidin-4-yl]amino]pyrimidin-2-yl]amino]pyridine-4-carboxylate] as the molecule, how does the Ki [1] read?
A: Its Ki is 3.98 to 31.6 nM.

Q: And the IC50 [2]?
A: Its IC50 is 200 to 1260 nM.

Q: For `Cc1cccc(-c2nccc(Nc3ccnc(Nc4ncc(C5=CCNC5)s4)n3)n2)n1` [Compound 609, N2-[5-(2,5-dihydro-1H-pyrrol-3-yl)thiazol-2-yl]-N4-[2-(6-methyl-2-pyridyl)pyrimidin-4-yl]pyrimidine-2,4-diamine], which Ki [1] is on record?
A: The Ki was 0.398 to 3.16 nM.

Q: And the IC50 [2]?
A: The IC50 was 25.1 to 158 nM.

Q: For `Cc1cccc(-c2nccc(Nc3ccnc(Nc4ccnc(C(=O)O)c4)n3)n2)n1` [Compound 610, 4-[[4-[[2-(6-methyl-2-pyridyl)pyrimidin-4-yl]amino]pyrimidin-2-yl]amino]pyridine-2-carboxylic acid], which Ki [1] is on record?
A: Its Ki is 0.0398 to 0.316 nM.

Q: And the IC50 [2]?
A: The IC50 was 1580 to 10000 nM.

Q: For `Cc1cccc(-c2nccc(Nc3ccnc(Nc4nc(C(=O)OC[C@@H]5CCNC5)cs4)n3)n2)n1` [Compound 611, [(3R)-pyrrolidin-3-yl]methyl 2-[[4-[[2-(6-methyl-2-pyridyl)pyrimidin-4-yl]amino]pyrimidin-2-yl]amino]thiazole-4-carboxylate], which Ki [1] is on record?
A: Its Ki is 0.398 to 3.16 nM.

Q: What about the IC50 [2] of the same molecule?
A: The IC50 was 200 to 1260 nM.

Q: Which results are given for `Cc1cccc(-c2nccc(Nc3ccnc(Nc4ccc(C(=O)OC[C@@H]5CCCN5)nc4)n3)n2)n1` [Compound 612, [(2S)-pyrrolidin-2-yl]methyl 5-[[4-[[2-(6-methyl-2-pyridyl)pyrimidin-4-yl]amino]pyrimidin-2-yl]amino]pyridine-2-carboxylate]?
A: Ki [1]: 0.0398 to 0.316 nM; IC50 [2]: 25.1 to 158 nM

Q: What does the source list for `Cc1cccc(-c2nccc(Nc3ccnc(Nc4ccc(C(=O)OCCN5CCN6CCCC6C5)nc4)n3)n2)n1` (stereo not shown) [Compound 613, 2-(3,4,6,7,8,8a-hexahydro-1H-pyrrolo[1,2-a]pyrazin-2-yl)ethyl 5-[[4-[[2-(6-methyl-2-pyridyl)pyrimidin-4-yl]amino]pyrimidin-2-yl]amino]pyridine-2-carboxylate]?
A: Ki [1]: 0.398 to 3.16 nM; IC50 [2]: 25.1 to 158 nM
